Converted amounts (≈) assume the structure as drawn.
How the values were obtained:
Type in all cases: functional
Settings in all cases: read-out: ID50 (the source's name)
L5178Y [1] = assay: The compound was tested for anticancer activity against L5178Y ([…] resistant) cell lines of mouse leukemia
L5178Y [2] = assay: The compound was tested for anticancer activity against L5178Y (sensitive) cell lines of mouse leukemia
P815 [3] = assay: The compound was tested for anticancer activity against P815([…] resistant) cell lines of mouse leukemia
P815 [4] = assay: The compound was tested for anticancer activity against P815 (sensitive) cell lines of mouse leukemia

Row | IC50 (L5178Y [1]) | IC50 (L5178Y [2]) | IC50 (P815 [3]) | IC50 (P815 [4]) | SMILES
1 | 10 µg/mL (≈ 26.9 µM) | 0.08 µg/mL (≈ 0.216 µM) | 8 µg/mL (≈ 21.6 µM) | 0.1 µg/mL (≈ 0.269 µM) | Nc1nc(=O)n(C2OC(CO)C(I)C2O)cc1F (stereo not drawn)
2 | > 100 µg/mL | 37 µg/mL (≈ 151 µM) | > 100 µg/mL | 21 µg/mL (≈ 85.6 µM) | Nc1ccn([C@@H]2O[C@H](CO)[C@H](F)[C@H]2O)c(=O)n1
3 | 8 µg/mL (≈ 19.3 µM) | 0.06 µg/mL (≈ 0.144 µM) | 3.9 µg/mL (≈ 9.39 µM) | 0.02 µg/mL (≈ 0.0481 µM) | Cc1ccc(S(=O)(=O)O[C@@H]2[C@@H](O)[C@H](n3cc(F)c(N)nc3=O)O[C@@H]2CO)cc1
4 | 79 µg/mL (≈ 325 µM) | 20 µg/mL (≈ 82.2 µM) | 40 µg/mL (≈ 164 µM) | 10 µg/mL (≈ 41.1 µM) | Nc1ccn([C@@H]2O[C@H](CO)[C@@H](O)[C@@H]2O)c(=O)n1 [CYTARABINE]

Second part, the compound before the results:

Row | SMILES | IC50 (L5178Y [1]) | IC50 (L5178Y [2]) | IC50 (P815 [3]) | IC50 (P815 [4])
5 | Nc1ccn(C2OC(CO)C(Br)C2O)c(=O)n1 (stereo not drawn) | > 100 µg/mL | 0.03 µg/mL (≈ 0.098 µM) | > 100 µg/mL | 0.05 µg/mL (≈ 0.163 µM)
6 | Cc1ccc(S(=O)(=O)O[C@@H]2[C@@H](O)[C@H](n3ccc(N)nc3=O)O[C@@H]2CO)cc1 | > 100 µg/mL | 0.08 µg/mL (≈ 0.201 µM) | > 30 µg/mL | 0.06 µg/mL (≈ 0.151 µM)
7 | CS(=O)(=O)O[C@@H]1[C@@H](O)[C@H](n2ccc(N)nc2=O)O[C@@H]1CO | > 100 µg/mL | 0.07 µg/mL (≈ 0.218 µM) | 22 µg/mL (≈ 68.5 µM) | 0.03 µg/mL (≈ 0.0934 µM)
8 | Nc1nc(=O)n(C2OC(CO)C(Cl)C2O)cc1F (stereo not drawn) | 71 µg/mL (≈ 254 µM) | 1 µg/mL (≈ 3.58 µM) | > 30 µg/mL | 0.7 µg/mL (≈ 2.5 µM)
9 | Nc1nc(=O)n(C2OC(CO)C(Br)C2O)cc1F (stereo not drawn) | 2.6 µg/mL (≈ 8.02 µM) | 0.06 µg/mL (≈ 0.185 µM) | 5 µg/mL (≈ 15.4 µM) | 0.2 µg/mL (≈ 0.617 µM)
10 | Nc1ccn(C2OC(CO)C(Cl)C2O)c(=O)n1 (stereo not drawn) | > 100 µg/mL | 2 µg/mL (≈ 7.64 µM) | > 100 µg/mL | 0.8 µg/mL (≈ 3.06 µM)
11 | CS(=O)(=O)O[C@@H]1[C@@H](O)[C@H](n2cc(F)c(N)nc2=O)O[C@@H]1CO | 5.3 µg/mL (≈ 15.6 µM) | 0.05 µg/mL (≈ 0.147 µM) | 6 µg/mL (≈ 17.7 µM) | 0.02 µg/mL (≈ 0.0589 µM)
12 | Nc1ccn(C2OC(CO)C(I)C2O)c(=O)n1 (stereo not drawn) | > 100 µg/mL | 0.1 µg/mL (≈ 0.283 µM) | > 100 µg/mL | 0.3 µg/mL (≈ 0.85 µM)
